Source: PubChem BioAssay AID1259411 (Chemical Carcinogenesis Research Information System (CCRIS), 2018)
Calls of active or inactive are those of the source. How the calls were made is not given here.

Test system: rodent carcinogenicity bioassays, tumor incidence
Test: CCRIS carcinogenicity studies
Outline: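 NCI-built, expert-reviewed records of carcinogenicity and related test outcomes (mutagenicity, tumor promotion/inhibition) compiled from published and report sources, historical span 1985-2011, not updated.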

Structure (SMILES): CCCSP(=O)(OCC)SCCC
- carcinogen call (Species: Mouse, Strain/Sex: B6C3F1/Female (50/Group), Route: Oral, Dose: 0, 0.2, 2, 30 ppm of 94.6% ethoprop in diet for 104 wk, study duration 104 wk, Dose: 0, 0.2, 2, 30 ppm of 94.6% ethoprop in diet for 104 wk, study duration 104 wk): inactive; negative
- carcinogen call (Species: Mouse, Strain/Sex: B6C3F1/Male (50/Group), Route: Oral, Dose: 0, 0.2, 2, 30 ppm of 94.6% ethoprop in diet for 104 wk, study duration 104 wk, Dose: 0, 0.2, 2, 30 ppm of 94.6% ethoprop in diet for 104 wk, study duration 104 wk): inactive; negative
- carcinogen call (Species: Rat, Strain/Sex: Crl:CD(SD)BR VAF/Plus/Female (80-90/Group), Route: Oral, Dose: 0, 60, 400 (reduced from 600 during wk 3) ppm of 95.6% ethoprop in diet for 104 wk, study duration 104 wk, Dose: 0, 60, 400 (reduced from 600 during wk 3) ppm of 95.6% ethoprop in diet for 104 wk, study duration 104 wk): inactive; negative
- carcinogen call (Species: Rat, Strain/Sex: Crl:CD(SD)BR VAF/Plus/Male (80-90/Group), Route: Oral, Dose: 0, 60, 400 (reduced from 600 during wk 3) ppm of 95.6% ethoprop in diet for 104 wk, study duration 104 wk, Dose: 0, 60, 400 (reduced from 600 during wk 3) ppm of 95.6% ethoprop in diet for 104 wk, study duration 104 wk): inactive; negative

Structure (SMILES): Cc1ccc2c(c1N)C(=O)c1ccccc1C2=O
- carcinogen call (Species: MOUSE, Strain/Sex: B6C3F1/FEMALE, Route: ORAL, Dose: 0, 0.06% OF DIET (2 DOSAGE REGIMENS--A & B RECEIVING SAME CONC), TWA, Tumor Site: Type of Lesion: LIVER: HEPATOCELLULAR CARCINOMA, NEOPLASTIC NODULE): active; positive
- carcinogen call (Species: MOUSE, Strain/Sex: B6C3F1/MALE, Route: ORAL, Dose: 0, 0.06% OF DIET (2 DOSAGE REGIMENS--A & B RECEIVING SAME CONC), TWA): inactive; negative
- carcinogen call (Species: RAT, Strain/Sex: F344/FEMALE, Route: ORAL, Dose: 0, 0.10, 0.20% OF DIET, Dose: 0, 0.10, 0.20% OF DIET, Tumor Site: Type of Lesion: LIVER: HEPATOCELLULAR CARCINOMA, NEOPLASTIC NODULE): active; positive
- carcinogen call (Species: RAT, Strain/Sex: F344/MALE, Route: ORAL, Dose: 0, 0.10, 0.20% OF DIET, Dose: 0, 0.10, 0.20% OF DIET, Tumor Site: Type of Lesion: LIVER: HEPATOCELLULAR CARCINOMA, NEOPLASTIC NODULE, KIDNEY: TUBULAR CELL ADENOMA, TUBULAR CELL ADENOCARCINOMA, ADENOCARC): active; positive

Structure (SMILES): CC(=O)N(O)c1ccc(-c2ccccc2)cc1
- carcinogen call (Species: RAT, Strain/Sex: STRAIN-CD/FEMALE, Route: INTRAPERITONEAL, Dose: 0, 100 UMOL/KG BW 2/WK FOR 6 WK (STUDY DURATION: 62 WK)): inactive; negative

Structure (SMILES): CC(C)(C)NC(=O)[C@H]1CC[C@H]2[C@@H]3CC[C@H]4NC(=O)C=C[C@]4(C)[C@H]3CC[C@]12C
- carcinogen call (Species: MOUSE, Strain/Sex: CD-1/MALE, Route: GAVAGE, Dose: 0, 2.5, 25, 250 MG/KG/D FOR 83 WK (STUDY DURATION: 83 WK), Dose: 0, 2.5, 25, 250 MG/KG/D FOR 83 WK (STUDY DURATION: 83 WK), Tumor Site: Type of Lesion: TESTES: LEYDIG CELL ADENOMA): active; positive

Structure (SMILES): O=[N+]([O-])c1cccc2c1ccc1c3ccccc3ccc21
- carcinogen call (Species: MOUSE, Strain/Sex: ICR/FEMALE, Route: INTRAPERITONEAL, Dose: 0, 100 NMOL (TOTAL DOSE) ADMINISTERED IN 3 SUBDOSES OF 1/7, 2/7, AND 4/7 ON DAYS 1, 8 AND 15 OF LIFE, RESPECTIVELY (STUD): inactive; negative
- carcinogen call (Species: MOUSE, Strain/Sex: ICR/MALE, Route: INTRAPERITONEAL, Dose: 0, 100 NMOL (TOTAL DOSE) ADMINISTERED IN 3 SUBDOSES OF 1/7, 2/7, AND 4/7 ON DAYS 1, 8 AND 15 OF LIFE, RESPECTIVELY (STUD): inactive; negative

Structure (SMILES): CC(=O)O[C@]1(C(C)=O)CC[C@H]2[C@@H]3C=C(C)C4=CC(=O)CC[C@]4(C)[C@H]3CC[C@@]21C
- carcinogen call (Species: DOG, Route: ORAL, Tumor Site: Type of Lesion: MAMMARY GLAND): active; positive

Structure (SMILES): N#CCCC(Br)(C#N)CBr (stereo unspecified)
- carcinogen call (Species: Mouse, Strain/Sex: B6C3F1/Female (50/Group), Route: Dermal, Dose: 0, 0.6, 2, 6 mg/kg in 95% ethanol on clipped area of skin 5 d/wk for 2 yr, Dose: 0, 0.6, 2, 6 mg/kg in 95% ethanol on clipped area of skin 5 d/wk for 2 yr): inactive; negative
- carcinogen call (Species: Mouse, Strain/Sex: B6C3F1/Male (50/Group), Route: Dermal, Dose: 0, 0.6, 2, 6 mg/kg in 95% ethanol on clipped area of skin 5 d/wk for 2 yr, Dose: 0, 0.6, 2, 6 mg/kg in 95% ethanol on clipped area of skin 5 d/wk for 2 yr): inactive; negative
- carcinogen call (Species: Rat, Strain/Sex: F344/N / Female (50/Group), Route: Dermal, Dose: 0, 2, 6, 18 mg/kg in 95% ethanol on clipped area of skin 5 d/wk for 2 yr, Dose: 0, 2, 6, 18 mg/kg in 95% ethanol on clipped area of skin 5 d/wk for 2 yr): inactive; negative
- carcinogen call (Species: Rat, Strain/Sex: F344/N / Male (50/Group), Route: Dermal, Dose: 0, 2, 6, 18 mg/kg in 95% ethanol on clipped area of skin 5 d/wk for 2 yr, Dose: 0, 2, 6, 18 mg/kg in 95% ethanol on clipped area of skin 5 d/wk for 2 yr): inactive; negative

Structure (SMILES): COc1ccc(O)c(C(C)(C)C)c1
- carcinogen call (Species: HAMSTER, Strain/Sex: SYRIAN/MALE, Route: ORAL, Dose: 1% IN DIET FOR 24 WK (STUDY DURATION: 24 WK), Tumor Site: Type of Lesion: FORESTOMACH: PAPILLOMA): active; positive

Structure (SMILES): c1ccc2c3c(ccc2c1)-c1cccc2cccc-3c12
- carcinogen call (Species: MOUSE, Route: DERMAL, Tumor Site: Type of Lesion: INTEGUMENTARY SYSTEM (SKIN)): active; positive
- carcinogen call (Species: MOUSE, Strain/Sex: CD-1/FEMALE, Route: INTRAPERITONEAL, Dose: 0, 0.11, 0.275, 1.1 UMOL (TOTAL DOSE) ADMINISTERED OVER DAYS 1, 8, AND 15 OF LIFE (STUDY DURATION: 52 WEEKS), Dose: 0, 0.11, 0.275, 1.1 UMOL (TOTAL DOSE) ADMINISTERED OVER DAYS 1, 8, AND 15 OF LIFE (STUDY DURATION: 52 WEEKS), Tumor Site: Type of Lesion: LUNG: ALVEOLAR/BRONCHIOLAR CARCINOMA): active; positive
- carcinogen call (Species: MOUSE, Strain/Sex: CD-1/MALE, Route: INTRAPERITONEAL, Dose: 0, 0.11, 0.275, 1.1 UMOL (TOTAL DOSE) ADMINISTERED OVER DAYS 1, 8, AND 15 OF LIFE (STUDY DURATION: 52 WEEKS), Dose: 0, 0.11, 0.275, 1.1 UMOL (TOTAL DOSE) ADMINISTERED OVER DAYS 1, 8, AND 15 OF LIFE (STUDY DURATION: 52 WEEKS), Tumor Site: Type of Lesion: LUNG: ALVEOLAR/BRONCHIOLAR CARCINOMA, LIVER: ADENOMA OR CARCINOMA): active; positive
- carcinogen call (Species: RAT, Strain/Sex: OSBORNE-MENDEL/FEMALE, Route: LUNG IMPLANT, Dose: 0, 0.2, 1.0, 5.0 MG IN BEESWAX/TRIOCTANOIN (STUDY DURATION: LIFETIME), Dose: 0, 0.2, 1.0, 5.0 MG IN BEESWAX/TRIOCTANOIN (STUDY DURATION: LIFETIME), Tumor Site: Type of Lesion: LUNG: EPIDERMOID CARCINOMA): active; positive

Structure (SMILES): CC1(C)O[C@@H]2C[C@H]3[C@@H]4CCC5=CC(=O)C=C[C@]5(C)[C@@]4(F)[C@@H](O)C[C@]3(C)[C@]2(C(=O)CO)O1
- carcinogen call (Species: RAT, Strain/Sex: SPRAGUE-DAWLEY/MALE, Route: ORAL, Dose: 0, 1.5 UG/ML IN DRINKING WATER FOR AN AVERAGE DAILY DOSE OF 12.7 UG/KG DURING WK10-20 THEN 4.8 UG/KG DURING WK 21-104 (S, Tumor Site: Type of Lesion: LIVER: HEPATOCELLULAR ADENOMA OR CARCINOMA): active; positive

Structure (SMILES): ClCOCCl
- carcinogen call (Species: HUMAN, Route: INHALATION, Tumor Site: Type of Lesion: LUNG: OAT CELL CARCINOMA): active; positive
- carcinogen call (Species: MOUSE, Strain/Sex: ICR/FEMALE, Route: DERMAL, Tumor Site: Type of Lesion: INTEGUMENTARY SYSTEM (SKIN): PAPILLOMA, SQUAMOUS CELL CARCINOMA): active; positive
- carcinogen call (Species: MOUSE, Strain/Sex: ICR/MALE,FEMALE, Route: SUBCUTANEOUS, Dose: 12.5 µL/KG IN PEANUT OIL ONCE, Tumor Site: Type of Lesion: LUNG: ADENOMA): active; positive
- carcinogen call (Species: MOUSE, Strain/Sex: ICR/MALE, Route: INHALATION, Dose: 0, 10, 100 PPB 6 HR/D, 5 D/WK FOR 6 MO (STUDY DURATION: 24 MO), Dose: 0, 10, 100 PPB 6 HR/D, 5 D/WK FOR 6 MO (STUDY DURATION: 24 MO), Tumor Site: Type of Lesion: LUNG: ADENOMA OR ADENOCARCINOMA): active; positive
- carcinogen call (Species: MOUSE, Strain/Sex: STRAIN-A, Route: INHALATION, Dose: 0.005 MG/L 6 HR/D, 5 D/WK FOR A TOTAL OF 82 D OVER 27 WK, Tumor Site: Type of Lesion: LUNG: ADENOMA): active; positive
- carcinogen call (Species: RAT, Strain/Sex: SPRAGUE-DAWLEY/FEMALE, Route: SUBCUTANEOUS, Dose: 3 MG IN 0.1 ML NUJOL 1/WK FOR 100 D THEN 1 MG 1/WK OR 3/MO FOR 200 D, Tumor Site: Type of Lesion: INJECTION SITE: FIBROSARCOMA): active; positive
- carcinogen call (Species: RAT, Strain/Sex: SPRAGUE-DAWLEY/MALE, Route: INHALATION, Dose: 0, 1, 10, 100 PPB 6 HR/D, 5 D/WK FOR 6 MO (STUDY DURATION: 19-28 MO), Dose: 0, 1, 10, 100 PPB 6 HR/D, 5 D/WK FOR 6 MO (STUDY DURATION: 19-28 MO), Tumor Site: Type of Lesion: NASAL CAVITY: ESTHESIONEUROEPITHELIOMA): active; positive
- carcinogen call (Species: RAT, Strain/Sex: SPRAGUE-DAWLEY, Route: INHALATION, Dose: 0.5 MG/M3 FOR 101 EXPOSURES, Tumor Site: Type of Lesion: LUNG: SQUAMOUS CELL CARCINOMA, NASAL CAVITY: ESTHESIONEUROEPITHELIOMA): active; positive
